Data reported in publication PMC11558128 (Advanced Science, 2024).
Substitutions are numbered along the chain they refer to. Read-outs that look alike come from different tables or passages of the source. Positions of bridges follow the written chain, without caps; N, C: chain ends. Residues, ends and D or L forms follow the SMILES beside them.

What was measured:
Test in all cases: cell-based
rKv4.2 T280A = target: T1, rKv4.2 T280A (Rattus norvegicus, UniProt Q63881, T280A); conditions: mean ± SEM
T1 construct: expressed in transfected cells; host or cells: HEK293T
T1 sequence (Q63881 1-630 T280A): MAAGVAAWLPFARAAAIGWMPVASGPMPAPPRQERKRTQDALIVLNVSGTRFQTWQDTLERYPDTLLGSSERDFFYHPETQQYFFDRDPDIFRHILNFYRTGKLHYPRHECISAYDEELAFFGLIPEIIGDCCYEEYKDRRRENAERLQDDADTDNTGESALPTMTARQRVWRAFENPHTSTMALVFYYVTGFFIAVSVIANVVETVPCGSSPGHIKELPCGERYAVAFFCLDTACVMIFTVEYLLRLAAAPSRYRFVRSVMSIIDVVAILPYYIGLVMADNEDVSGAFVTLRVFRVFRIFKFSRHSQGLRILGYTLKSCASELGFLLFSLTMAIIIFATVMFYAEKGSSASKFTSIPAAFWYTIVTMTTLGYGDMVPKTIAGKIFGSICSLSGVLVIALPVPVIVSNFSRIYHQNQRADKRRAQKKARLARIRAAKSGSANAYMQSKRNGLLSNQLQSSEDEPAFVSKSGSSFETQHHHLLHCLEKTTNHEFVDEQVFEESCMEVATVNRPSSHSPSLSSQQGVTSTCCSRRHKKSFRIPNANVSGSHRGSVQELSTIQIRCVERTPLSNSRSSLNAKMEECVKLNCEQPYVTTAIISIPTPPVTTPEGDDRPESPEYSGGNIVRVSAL

rKv4.2 = target: T2, rKv4.2 (Rattus norvegicus, UniProt Q63881); conditions: whole-cell patch clamp, HEK293T, n = 3-8, SEM
T2 construct: expressed in transfected cells; host or cells: HEK293T
T2 sequence (Q63881 1-630): T1 sequence (Q63881 1-630 T280A) with A280T

rKv4.3 = target: T3, rKv4.3 (Rattus norvegicus, UniProt Q62897); conditions: whole-cell patch clamp, HEK293T, mean ± S.E.M., SEM
T3 construct: expressed in transfected cells; host or cells: HEK293T
T3 sequence (Q62897 1-655): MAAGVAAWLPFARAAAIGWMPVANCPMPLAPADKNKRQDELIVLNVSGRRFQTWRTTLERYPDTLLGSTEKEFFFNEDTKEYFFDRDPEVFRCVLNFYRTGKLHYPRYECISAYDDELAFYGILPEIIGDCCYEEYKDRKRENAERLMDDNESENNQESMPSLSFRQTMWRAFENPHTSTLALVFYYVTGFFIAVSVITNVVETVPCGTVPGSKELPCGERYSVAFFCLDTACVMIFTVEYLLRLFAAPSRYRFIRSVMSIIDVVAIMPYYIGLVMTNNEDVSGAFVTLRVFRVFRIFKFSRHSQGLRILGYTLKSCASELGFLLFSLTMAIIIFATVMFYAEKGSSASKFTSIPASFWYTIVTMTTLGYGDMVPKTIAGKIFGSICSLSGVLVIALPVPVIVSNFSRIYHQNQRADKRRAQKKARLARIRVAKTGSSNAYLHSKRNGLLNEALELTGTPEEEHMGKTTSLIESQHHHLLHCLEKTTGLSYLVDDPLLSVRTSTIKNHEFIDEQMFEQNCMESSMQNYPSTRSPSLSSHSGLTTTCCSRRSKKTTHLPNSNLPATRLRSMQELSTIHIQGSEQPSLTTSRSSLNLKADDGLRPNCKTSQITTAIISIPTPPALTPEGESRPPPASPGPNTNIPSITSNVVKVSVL

rKv4.2 M279A = target: T4, rKv4.2 M279A (Rattus norvegicus, UniProt Q63881, M279A); conditions: mean ± SEM
T4 construct: expressed in transfected cells; host or cells: HEK293T
T4 sequence (Q63881 1-630 M279A): T1 sequence (Q63881 1-630 T280A) with M279A, A280T

[1] = mean ± SEM, read-out: IC50 on rKv4.2 WT
[2] = held at -80 mV, step to 0 mV, n = 3-8

SMILES | IC50 (rKv4.2 T280A) | IC50 (rKv4.2; [1]) | IC50 (rKv4.3; [2]) | IC50 (rKv4.2 M279A) | IC50 (rKv4.2; held at -80 mV, step to 0 mV, mean ± S.E.M., read-out: IC50 for rKv4.2) | IC50 (rKv4.3; n = 5)
CC(C)C[C@H](NC(=O)[C@H](Cc1ccc(O)cc1)NC(=O)[C@@H](NC(=O)[C@H](CCCCN)NC(=O)[C@@H]1CSSC[C@@H]2NC(=O)[C@H](CCC(=O)O)NC(=O)[C@H](CC(N)=O)NC(=O)[C@H](CCCCN)NC(=O)CNC(=O)[C@@H]3CCCN3C(=O)[C@H]([C@@H](C)O)NC(=O)[C@@H]3CSSC[C@H](NC(=O)[C@H](C)NC(=O)[C@H](Cc4ccc(O)cc4)NC(=O)[C@H](CC(N)=O)NC(=O)[C@@H]4CCCN4C(=O)[C@H](CSSC[C@H](NC(=O)CN)C(=O)N[C@@H](CCCCN)C(=O)NCC(=O)N[C@@H](Cc4ccccc4)C(=O)NCC(=O)N[C@@H](CC(=O)O)C(=O)N[C@@H](CO)C(=O)N3)NC2=O)C(=O)N[C@@H](CO)C(=O)N[C@@H](CO)C(=O)N[C@@H](CCCCN)C(=O)N[C@@H](Cc2c[nH]cn2)C(=O)N[C@@H](CCCCN)C(=O)N[C@@H](Cc2c[nH]c3ccccc23)C(=O)N1)C(C)C)C(N)=O [HNTX-III] (H-GCKGFGDSCTPGKNECCPNYACSSKHKWCKVYL-NH2; disulfide 2-17, 9-22, 16-29) | 38 ± 14 nM | 162 ± 23 nM | 373 ± 65.5 nM | 1000 ± 347 nM | – | –
CC[C@H](C)[C@H](NC(=O)[C@H](CCC(=O)O)NC(=O)[C@H](Cc1ccc(O)cc1)NC(=O)[C@H](CCCCN)NC(=O)[C@@H]1CSSC[C@@H]2NC(=O)[C@H](CCC(N)=O)NC(=O)[C@H](CC(=O)O)NC(=O)[C@H](CC(N)=O)NC(=O)[C@H](CO)NC(=O)[C@@H]3CCCN3C(=O)[C@H](CC(N)=O)NC(=O)[C@@H]3CSSC[C@H](NC(=O)[C@H](C(C)C)NC(=O)[C@H](CC(C)C)NC(=O)[C@H](CC(N)=O)NC(=O)[C@H](CO)NC(=O)[C@H](CO)NC(=O)[C@H](CCCCN)NC(=O)[C@H](CSSC[C@H](NC(=O)[C@@H](N)CCC(=O)O)C(=O)N[C@@H](CC(C)C)C(=O)NCC(=O)N[C@@H](Cc4ccccc4)C(=O)NCC(=O)N[C@@H](CCCCN)C(=O)NCC(=O)N3)NC2=O)C(=O)N[C@@H](CO)C(=O)N[C@@H](CCCNC(=N)N)C(=O)N[C@@H](CCCCN)C(=O)N[C@@H](Cc2c[nH]cn2)C(=O)N[C@@H](CCCNC(=N)N)C(=O)N[C@@H](Cc2c[nH]c3ccccc23)C(=O)N1)C(N)=O [HNTX-IV] | 136 ± 21 nM | 51 ± 10 nM | 189 ± 14.7 nM | 167 ± 14 nM | – | –
CC(C)C[C@@H]1NC(=O)[C@H](Cc2c[nH]c3ccccc23)NC(=O)[C@H](Cc2ccc(O)cc2)NC(=O)[C@H](CCCNC(=N)N)NC(=O)[C@@H](NC(=O)[C@@H](N)CCC(=O)O)CSSC[C@@H]2NC(=O)[C@@H]3CSSC[C@@H](C(=O)N[C@H](C(=O)N[C@@H](Cc4c[nH]c5ccccc45)C(=O)N[C@@H](CC(=O)O)C(=O)N[C@@H](Cc4c[nH]c5ccccc45)C(=O)N[C@H](C(=O)N[C@@H](Cc4ccccc4)C(N)=O)[C@@H](C)O)C(C)C)NC(=O)[C@H](Cc4c[nH]c5ccccc45)NC(=O)CNC(=O)[C@H](Cc4c[nH]cn4)NC(=O)[C@H](CCCCN)NC(=O)[C@@H]4CCCN4C(=O)[C@H](CO)NC(=O)[C@H](CSSC[C@H](NC(=O)[C@H]([C@@H](C)O)NC(=O)CNC1=O)C(=O)N[C@@H](CO)C(=O)N[C@@H](CCCCN)C(=O)N[C@@H]([C@@H](C)O)C(=O)NCC(=O)N[C@@H](CC(=O)O)C(=O)N3)NC(=O)[C@H](CO)NC(=O)[C@H](CC(C)C)NC(=O)[C@H](Cc1c[nH]cn1)NC(=O)[C@H](CO)NC2=O [HNTX-VIIa] (H-ECRYWLGTCSKTGDCCSHLSCSPKHGWCVWDWTF-NH2; disulfide 2-16, 9-21, 15-28) | 13 ± 2 nM | – | 130 ± 14.5 nM | 42 ± 6 nM | 18 ± 3.2 nM | –
CSCC[C@@H]1NC(=O)CNC(=O)[C@H](CCC(=O)O)NC(=O)[C@@H]2CSSC[C@H](NC(=O)[C@@H](N)Cc3ccc(O)cc3)C(=O)N[C@@H](CCC(N)=O)C(=O)N[C@@H](CCCCN)C(=O)N[C@@H](Cc3c[nH]c4ccccc34)C(=O)N[C@@H](CCSC)C(=O)N[C@@H](Cc3c[nH]c4ccccc34)C(=O)N[C@@H]([C@@H](C)O)C(=O)N[C@H]3CSSC[C@H](NC(=O)[C@H](C(C)C)NC1=O)C(=O)N[C@@H](CCCNC(=N)N)C(=O)N[C@@H](CC(C)C)C(=O)N[C@@H](Cc1c[nH]c4ccccc14)C(=O)N[C@H](C(=O)N[C@@H](CCCCN)C(=O)N[C@@H](CCCCN)C(=O)N[C@@H](CCCCN)C(=O)N[C@@H](CC(C)C)C(=O)N[C@@H](Cc1c[nH]c4ccccc14)C(=O)O)CSSC[C@H](NC(=O)[C@H](CCCCN)NC(=O)[C@H](CCCNC(=N)N)NC(=O)[C@H](CCC(=O)O)NC(=O)[C@H](CO)NC(=O)[C@H](CC(=O)O)NC3=O)C(=O)N2 [ProTx-II] | 89 ± 21 nM | 5 ± 2 nM | 5.1 ± 0.4 nM | 17 ± 5 nM | – | –
CC[C@H](C)[C@@H]1NC(=O)[C@@H]2CSSC[C@@H]3NC(=O)[C@H](C(C)C)NC(=O)[C@H](CC(C)C)NC(=O)[C@H](CC(N)=O)NC(=O)[C@@H]4CCCN4C(=O)[C@H](CCCNC(=N)N)NC(=O)[C@H](CSSC[C@H](NC(=O)[C@@H](N)CC(=O)O)C(=O)N[C@@H](CC(C)C)C(=O)NCC(=O)N[C@@H](C)C(=O)N[C@@H](Cc4ccccc4)C(=O)N[C@@H](CCCNC(=N)N)C(=O)N[C@@H](CCCCN)C(=O)N2)NC(=O)[C@H](CSSC[C@@H](C(=O)N[C@@H](CCCCN)C(=O)N[C@@H](Cc2ccc(O)cc2)C(=O)N[C@H](C(=O)N[C@@H](Cc2ccccc2)C(N)=O)C(C)C)NC(=O)[C@H](Cc2c[nH]c4ccccc24)NC(=O)[C@H](CCCNC(=N)N)NC(=O)[C@H](Cc2c[nH]cn2)NC(=O)[C@H](C)NC(=O)[C@H](CO)NC(=O)[C@H](CO)NC3=O)NC(=O)[C@H](CCCCN)NC(=O)[C@H](CC(=O)O)NC(=O)[C@H](CC(N)=O)NC(=O)[C@H](CC(=O)O)NC(=O)[C@@H]2CCCN2C1=O [mGpTx1-SA] (H-DCLGAFRKCIPDNDKCCRPNLVCSSAHRWCKYVF-NH2; disulfide 2-17, 9-23, 16-30) | – | 30000 ± 9000 nM | – | – | – | 2000 ± 300 nM
